Test results published in US11292801B2, “Calpain modulators and therapeutic uses thereof” (Blade Therapeutics, Inc., priority 2016, dated 2022).

Columns and labels:
Human Calpain 2/NS1 = biological target: T1, Human Calpain 2/NS1 (Homo sapiens, UniProt P17655); assay: Biochemical inhibition of calpain 2, continuous fluorescence (FRET substrate) assay; conditions: mean, read-out: Human Calpain 2/NS1 IC50 (nM)_MEAN
T1 sequence (P17655 1-700): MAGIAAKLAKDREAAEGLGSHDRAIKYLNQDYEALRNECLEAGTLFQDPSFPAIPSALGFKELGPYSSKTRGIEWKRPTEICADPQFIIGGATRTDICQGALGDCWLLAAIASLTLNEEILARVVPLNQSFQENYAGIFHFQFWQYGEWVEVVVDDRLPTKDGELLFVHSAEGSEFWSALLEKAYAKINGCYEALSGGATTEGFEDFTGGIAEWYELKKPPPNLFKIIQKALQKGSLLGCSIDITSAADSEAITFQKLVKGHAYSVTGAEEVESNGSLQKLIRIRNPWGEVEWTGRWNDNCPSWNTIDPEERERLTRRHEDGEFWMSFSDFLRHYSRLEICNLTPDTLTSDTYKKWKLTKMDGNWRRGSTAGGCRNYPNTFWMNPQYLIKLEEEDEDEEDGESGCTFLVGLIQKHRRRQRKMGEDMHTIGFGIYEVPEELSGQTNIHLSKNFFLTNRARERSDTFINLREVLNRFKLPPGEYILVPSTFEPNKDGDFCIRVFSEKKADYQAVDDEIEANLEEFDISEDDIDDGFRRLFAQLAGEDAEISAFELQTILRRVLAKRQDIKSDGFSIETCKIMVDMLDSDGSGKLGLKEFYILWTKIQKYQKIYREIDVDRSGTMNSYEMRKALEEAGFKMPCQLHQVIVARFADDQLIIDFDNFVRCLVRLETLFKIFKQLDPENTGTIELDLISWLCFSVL
T1 sequence (P04632 1-268 partner): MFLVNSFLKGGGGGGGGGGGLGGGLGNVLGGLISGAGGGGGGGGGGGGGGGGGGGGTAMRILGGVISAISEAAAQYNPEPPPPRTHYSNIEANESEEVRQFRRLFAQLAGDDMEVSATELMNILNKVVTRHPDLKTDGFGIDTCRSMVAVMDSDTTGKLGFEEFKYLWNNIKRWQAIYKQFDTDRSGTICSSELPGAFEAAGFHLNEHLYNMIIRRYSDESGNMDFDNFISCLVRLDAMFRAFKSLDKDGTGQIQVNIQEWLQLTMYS
In short: (§1)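 Continuous FRET assay with 5-FAM/QXL520 peptide substrate in 50 mM Tris pH ~7.5, 100 mM NaCl, 1 mM DTT. Enzyme preincubated with inhibitor at 25C; reaction started with substrate plus CaCl2, read at 490/520 nm for 10 min. Rates from slopes over 1-5 min, IC50 from 4-parameter logistic fit.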

Human Calpain 1/NS1 = biological target: T2, Human Calpain 1/NS1 (Homo sapiens, UniProt P07384); assay: Biochemical inhibition of calpain 1, continuous fluorescence (FRET substrate) assay; conditions: mean, read-out: Human Calpain 1/NS1 IC50 (nM)_MEAN
T2 sequence (P07384 1-714): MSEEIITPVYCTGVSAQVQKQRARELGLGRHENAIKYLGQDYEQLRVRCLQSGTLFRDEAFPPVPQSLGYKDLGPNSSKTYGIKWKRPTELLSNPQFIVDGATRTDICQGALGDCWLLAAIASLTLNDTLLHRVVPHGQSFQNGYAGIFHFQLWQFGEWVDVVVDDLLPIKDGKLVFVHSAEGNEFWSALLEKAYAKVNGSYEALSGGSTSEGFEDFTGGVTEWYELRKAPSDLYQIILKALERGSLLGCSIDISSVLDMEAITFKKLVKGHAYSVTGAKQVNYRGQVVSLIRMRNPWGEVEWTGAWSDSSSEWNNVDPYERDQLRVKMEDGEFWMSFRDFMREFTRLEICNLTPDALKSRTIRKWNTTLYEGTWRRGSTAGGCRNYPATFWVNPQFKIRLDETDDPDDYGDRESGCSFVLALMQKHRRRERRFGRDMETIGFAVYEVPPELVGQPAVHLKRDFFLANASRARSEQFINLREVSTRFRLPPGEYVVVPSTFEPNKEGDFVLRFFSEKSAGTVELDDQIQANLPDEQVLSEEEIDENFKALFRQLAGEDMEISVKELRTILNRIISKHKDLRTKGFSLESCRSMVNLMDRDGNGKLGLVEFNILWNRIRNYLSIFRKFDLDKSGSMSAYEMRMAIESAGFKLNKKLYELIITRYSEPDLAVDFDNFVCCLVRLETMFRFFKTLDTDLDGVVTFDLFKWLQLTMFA
T2 sequence (P04632 1-268 partner): T1 sequence (P04632 1-268 partner)
In short: as §1

Human Calpain 9/NS1 = biological target: T3, Human Calpain 9/NS1 (Homo sapiens, UniProt O14815); assay: Biochemical inhibition of calpain 9, continuous fluorescence (FRET substrate) assay; conditions: mean, read-out: Human Calpain 9/NS1 IC50 (nM)_MEAN
T3 sequence (O14815 1-690): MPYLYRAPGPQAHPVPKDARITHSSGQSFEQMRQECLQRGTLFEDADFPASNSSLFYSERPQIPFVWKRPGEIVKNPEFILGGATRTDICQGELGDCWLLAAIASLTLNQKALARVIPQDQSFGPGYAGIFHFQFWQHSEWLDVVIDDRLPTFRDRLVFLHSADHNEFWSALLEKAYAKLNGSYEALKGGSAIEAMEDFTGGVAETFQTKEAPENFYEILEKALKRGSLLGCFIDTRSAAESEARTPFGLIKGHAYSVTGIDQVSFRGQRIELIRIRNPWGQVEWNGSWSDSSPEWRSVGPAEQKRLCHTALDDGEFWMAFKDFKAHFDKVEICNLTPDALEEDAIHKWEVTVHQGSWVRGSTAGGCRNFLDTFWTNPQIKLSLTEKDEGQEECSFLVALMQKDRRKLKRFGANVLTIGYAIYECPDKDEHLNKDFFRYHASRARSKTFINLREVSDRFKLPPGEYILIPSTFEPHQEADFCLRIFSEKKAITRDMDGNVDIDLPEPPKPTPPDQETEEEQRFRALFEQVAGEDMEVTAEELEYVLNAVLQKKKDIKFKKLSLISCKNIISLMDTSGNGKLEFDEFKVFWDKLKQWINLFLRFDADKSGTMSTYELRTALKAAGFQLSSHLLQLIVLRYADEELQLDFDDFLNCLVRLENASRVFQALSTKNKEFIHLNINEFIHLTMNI
T3 sequence (P04632 1-268 partner): T1 sequence (P04632 1-268 partner)
In short: as §1

IC50 (Human Calpain 2/NS1) [nM]	IC50 (Human Calpain 1/NS1) [nM]	IC50 (Human Calpain 9/NS1) [nM]	Compound
> 10000	> 10000	< 3000	O=C(NCc1ccccc1)C(=O)[C@@H]1C/C=C\COCCOCc2ccccc2C(=O)N1 [Compound 3, (S,Z)—N-benzyl-2-oxo-2-(12-oxo-1,3,4,6,9,10,11,12-octahydrobenzo[f][1,4]dioxa[9]azacyclotetradecin-10-yl)acetamide]
< 3000	< 3000	< 3000	O=C(NC1CC1)C(=O)[C@@H]1Cc2ccc(cc2)CCCCc2cccc(c2)-c2ccn(n2)-c2ncccc2C(=O)N1 [Compound 74, N-cyclopropyl-2-oxo-2-((10S,E)-12-oxo-2′H-11-aza-1(2,3)-pyridina-2(1,3)-pyrazola-3(1,3),8(1,4)-dibenzenacyclododecaphane-10-yl)acetamide]
< 3000	< 3000	< 3000	C/C1=C\C[C@@H](C(=O)C(N)=O)NC(=O)c2cc(C)nn2-c2cccc(c2)OCC1 [Compound 145, (S,E)-2-(1^3,6-dimethyl-11-oxo-1H-3-oxa-10-aza-1(1,5)-pyrazola-2(1,3)-benzenacycloundecaphan-6-en-9-yl)-2-oxoacetamide]
< 3000	3000 to 10000	< 3000	O=C[C@@H]1C/C=C/CCCCCCc2ccccc2C(=O)N1 [Compound 10, (S,E)-1-Oxo-1,2,3,4,7,8,9,10,11,12-decahydrobenzo[c][1]aza-cyclotetradecine-3-carbaldehyde]
3000 to 10000	> 10000	< 3000	O=C[C@@H]1CCCCCCCCc2cccnc2C(=O)N1 [Compound 49, (S)-15-Oxo-6,7,8,9,10,11,12,13,14,15-decahydro-5h-pyrido[2,3-c][1]aza-cyclotridecine-13-carbaldehyde]
< 3000	< 3000	< 3000	O=C[C@@H]1CC=CCCOc2cccc(c2)-c2ncccc2C(=O)N1 [Compound 37, (S)-11-Oxo-3-oxa-10-aza-1(2,3)-pyridina-2(1,3)-benzenacycloundecaphan-6-ene-9-carbaldehyde]
> 10000	> 10000	< 3000	COc1cccc(CCNC(=O)C(=O)C2CCCCOCCOCc3ccccc3C(=O)N2)c1 (stereo not drawn) [Compound 88, N-(3-methoxyphenethyl)-2-oxo-2-(12-oxo-1,3,4,6,7,8,9,10,11,12-decahydrobenzo[f][1,4]dioxa[9]azacyclotetradecin-10-yl)acetamide]
3000 to 10000	> 10000	3000 to 10000	O=C[C@@H]1CCCCOCCOc2ccccc2C(=O)N1 [Compound 19, (S)-11-Oxo-2,3,6,7,8,9,10,11-octahydro-5h-benzo[e][1,4]dioxa[8]azacyclotridecine-9-carbaldehyde]
< 3000	3000 to 10000	< 3000	NC(=O)C(=O)[C@@H]1CCCCOCCOCc2ccccc2C(=O)N1 [Compound 57, (S)-2-Oxo-2-(12-oxo-1,3,4,6,7,8,9,10,11,12-decahydrobenzo[f][1,4]dioxa[9]azacyclotetradecin-10-yl)acetamide]
> 10000	> 10000	> 10000	CC(C)NC(=O)C(=O)[C@@H]1C/C=C\COCCOCc2ccccc2C(=O)N1 [Compound 58, (S,Z)—N-isopropyl-2-oxo-2-(12-oxo-1,3,4,6,9,10,11,12-octahydrobenzo[f][1,4]dioxa[9]azacyclotetradecin-10-yl)acetamide]
> 10000	> 10000	> 10000	Cc1cccc(C)c1NC(=O)C(=O)[C@@H]1CCCCOCCOCc2ccccc2C(=O)N1 [Compound 54, (S)—N-(2,6-dimethylphenyl)-2-oxo-2-(12-oxo-1,3,4,6,7,8,9,10,11,12-decahydrobenzo[f][1,4]dioxa[9]azacyclotetradecin-10-yl)acetamide]
> 10000	> 10000	> 10000	O=C(NC1CC1)C(=O)C1CCCCOCCOCc2ccccc2C(=O)N1 (stereo not drawn) [Compound 114, N-cyclopropyl-2-oxo-2-(12-oxo-1,3,4,6,7,8,9,10,11,12-decahydrobenzo[f][1,4]dioxa[9]azacyclotetradecin-10-yl)acetamide]
> 10000	> 10000	> 10000	CCNC(=O)C(=O)[C@@H]1C/C=C/CCCCCCCc2ccccc2C(=O)N1 [Compound 33, (S,E)-N-ethyl-2-oxo-2-(1-oxo-2,3,4,7,8,9,10,11,12,13-decahydro-1h-benzo[c][1]azacyclopentadecin-3-yl)acetamide]
< 3000	< 3000	< 3000	(S)-2-(1^3-methyl-11-oxo-1^1H-3-oxa-10-aza-1(1,5)-pyrazola-2(1,3)-benzenacycloundecaphane-9-yl)-2-oxoacetamide [Compound 143]
3000 to 10000	> 10000	< 3000	Cc1ccc(Cl)cc1CNC(=O)C(=O)C1CCCCOCCOCc2ccccc2C(=O)N1 (stereo not drawn) [Compound 108, N-(5-chloro-2-methylbenzyl)-2-oxo-2-(12-oxo-1,3,4,6,7,8,9,10,11,12-decahydrobenzo[f][1,4]dioxa[9]azacyclotetradecin-10-yl)acetamide]
< 3000	< 3000	< 3000	O=C[C@@H]1Cc2ccc(cc2)OC/C=C/COc2ccc3c(cnn3-c3ncccc3C(=O)N1)c2 [Compound 66, (5S,E)-3-oxo-1^1H-8,13-dioxa-4-aza-1(1,5)-indazola-2(2,3)-pyridina-7(1,4)-benzenacyclotridecaphan-10-ene-5-carbaldehyde]
> 10000	> 10000	3000 to 10000	CCNC(=O)C(=O)[C@@H]1CC=CCCCCCc2ccccc2C(=O)N1 [Compound 26, (S)—N-ethyl-2-oxo-2-(1-oxo-2,3,4,7,8,9,10,11-octahydro-1h-benzo[c][1]azacyclotridecin-3-yl)acetamide]
< 3000	> 10000	< 3000	O=C[C@@H]1CC=CCCCOCc2ccccc2C(=O)N1 [Compound 41, (S)-11-Oxo-1,3,4,5,8,9,10,11-octahydrobenzo[c][1]oxa[6]azacyclotridecine-9-carbaldehyde]
